Laboratory results published in paper PMC3735612, “Functional Identification of Close Proximity Amino Acid Side Chains within the Transmembrane-Spanning Helixes of the P2X2 Receptor” (PLoS ONE, 2013).
Numbering of substitutions follows the chain as printed.

Columns and labels:
Assay in all cases: perforated-patch whole-cell voltage clamp, peak ATP-gated current, Hill fit
Format in all cases: cell-based
[1] = target: T1, rP2X2R (rP2X2R-WT; rP2X2R-T for the C348T background) (Rattus norvegicus, UniProt P49653, C348T/I328C/V48C)
T1 construct: gene P2rx2; full-length, C-terminal FLAG tag (DYKDDDDK), transiently expressed in HEK293 cells with EGFP; homotrimer; monomer about 62 kDa on SDS-PAGE; all point mutants made on the C348T (rP2X2R-T) background
T1 sequence (P49653 1-472 V48C/I328C/C348T): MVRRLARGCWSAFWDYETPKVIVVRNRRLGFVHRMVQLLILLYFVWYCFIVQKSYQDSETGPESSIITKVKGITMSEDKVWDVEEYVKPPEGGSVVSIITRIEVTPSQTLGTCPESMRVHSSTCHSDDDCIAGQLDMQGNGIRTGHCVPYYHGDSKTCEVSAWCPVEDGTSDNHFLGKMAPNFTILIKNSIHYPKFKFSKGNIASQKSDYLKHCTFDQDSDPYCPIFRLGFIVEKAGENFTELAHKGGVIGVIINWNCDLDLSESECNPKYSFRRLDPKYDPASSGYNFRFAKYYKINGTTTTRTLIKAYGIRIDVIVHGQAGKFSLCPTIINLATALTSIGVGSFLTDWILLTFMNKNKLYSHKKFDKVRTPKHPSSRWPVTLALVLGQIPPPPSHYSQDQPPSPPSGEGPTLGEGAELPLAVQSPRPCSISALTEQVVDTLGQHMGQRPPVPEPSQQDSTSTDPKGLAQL
Source text: (§1) perforated-patch whole-cell voltage clamp, peak ATP-gated current, Hill fit on rP2X2R (rP2X2R-WT; rP2X2R-T for the C348T background)

[2] = target: T2, rP2X2R (rP2X2R-WT; rP2X2R-T for the C348T background) (Rattus norvegicus, UniProt P49653, C348T/F44C)
T2 construct: gene P2rx2; full-length, C-terminal FLAG tag (DYKDDDDK), transiently expressed in HEK293 cells with EGFP; homotrimer; monomer about 62 kDa on SDS-PAGE; all point mutants made on the C348T (rP2X2R-T) background
T2 sequence (P49653 1-472 F44C/C348T): T1 sequence (P49653 1-472 V48C/I328C/C348T) with F44C, C48V, C328I
Source text: as §1

[3] = target: T3, rP2X2R (rP2X2R-WT; rP2X2R-T for the C348T background) (Rattus norvegicus, UniProt P49653, C348T/H33C/S345C)
T3 construct: gene P2rx2; full-length, C-terminal FLAG tag (DYKDDDDK), transiently expressed in HEK293 cells with EGFP; homotrimer; monomer about 62 kDa on SDS-PAGE; all point mutants made on the C348T (rP2X2R-T) background
T3 sequence (P49653 1-472 H33C/S345C/C348T): T1 sequence (P49653 1-472 V48C/I328C/C348T) with H33C, C48V, C328I, S345C
Source text: as §1

[4] = target: T4, rP2X2R (rP2X2R-WT; rP2X2R-T for the C348T background) (Rattus norvegicus, UniProt P49653, C348T/S345C)
T4 construct: gene P2rx2; full-length, C-terminal FLAG tag (DYKDDDDK), transiently expressed in HEK293 cells with EGFP; homotrimer; monomer about 62 kDa on SDS-PAGE; all point mutants made on the C348T (rP2X2R-T) background
T4 sequence (P49653 1-472 S345C/C348T): T1 sequence (P49653 1-472 V48C/I328C/C348T) with C48V, C328I, S345C
Source text: as §1

[5] = target: T5, rP2X2R (rP2X2R-WT; rP2X2R-T for the C348T background) (Rattus norvegicus, UniProt P49653, C348T/H33A)
T5 construct: gene P2rx2; full-length, C-terminal FLAG tag (DYKDDDDK), transiently expressed in HEK293 cells with EGFP; homotrimer; monomer about 62 kDa on SDS-PAGE; all point mutants made on the C348T (rP2X2R-T) background
T5 sequence (P49653 1-472 H33A/C348T): T1 sequence (P49653 1-472 V48C/I328C/C348T) with H33A, C48V, C328I
Source text: as §1

[6] = target: T6, rP2X2R (rP2X2R-WT; rP2X2R-T for the C348T background) (Rattus norvegicus, UniProt P49653, C348T/H33A/S345A)
T6 construct: gene P2rx2; full-length, C-terminal FLAG tag (DYKDDDDK), transiently expressed in HEK293 cells with EGFP; homotrimer; monomer about 62 kDa on SDS-PAGE; all point mutants made on the C348T (rP2X2R-T) background
T6 sequence (P49653 1-472 H33A/S345A/C348T): T1 sequence (P49653 1-472 V48C/I328C/C348T) with H33A, C48V, C328I, S345A
Source text: as §1

[7] = target: T7, rP2X2R (rP2X2R-WT; rP2X2R-T for the C348T background) (Rattus norvegicus, UniProt P49653, C348T/H33C)
T7 construct: gene P2rx2; full-length, C-terminal FLAG tag (DYKDDDDK), transiently expressed in HEK293 cells with EGFP; homotrimer; monomer about 62 kDa on SDS-PAGE; all point mutants made on the C348T (rP2X2R-T) background
T7 sequence (P49653 1-472 H33C/C348T): T1 sequence (P49653 1-472 V48C/I328C/C348T) with H33C, C48V, C328I
Source text: as §1

[8] = target: T8, rP2X2R (rP2X2R-WT; rP2X2R-T for the C348T background) (Rattus norvegicus, UniProt P49653, C348T/S345A)
T8 construct: gene P2rx2; full-length, C-terminal FLAG tag (DYKDDDDK), transiently expressed in HEK293 cells with EGFP; homotrimer; monomer about 62 kDa on SDS-PAGE; all point mutants made on the C348T (rP2X2R-T) background
T8 sequence (P49653 1-472 S345A/C348T): T1 sequence (P49653 1-472 V48C/I328C/C348T) with C48V, C328I, S345A
Source text: as §1

[9] = target: T9, rP2X2R (rP2X2R-WT; rP2X2R-T for the C348T background) (Rattus norvegicus, UniProt P49653, C348T/I328A)
T9 construct: gene P2rx2; full-length, C-terminal FLAG tag (DYKDDDDK), transiently expressed in HEK293 cells with EGFP; homotrimer; monomer about 62 kDa on SDS-PAGE; all point mutants made on the C348T (rP2X2R-T) background
T9 sequence (P49653 1-472 I328A/C348T): T1 sequence (P49653 1-472 V48C/I328C/C348T) with C48V, C328A
Source text: as §1

Question: For `Nc1ncnc2c1ncn2[C@@H]1O[C@H](COP(=O)(O)OP(=O)(O)OP(=O)(O)O)[C@@H](O)[C@H]1O` [ATP], which EC50 [1] is on record?
Answer: Its EC50 is 17.8 ± 2 µM.

Question: What about the EC50 [2] of the same compound?
Answer: Its EC50 is 0.81 ± 0.1 µM.

Question: What about the EC50 [3] of the same compound?
Answer: The EC50 was 7.3 ± 1.1 µM.

Question: And the EC50 [4]?
Answer: Its EC50 is 6.3 ± 0.9 µM.

Question: What about the EC50 [5] of the same compound?
Answer: The EC50 was 4.2 ± 0.6 µM.

Question: What about the EC50 [6] of the same compound?
Answer: The EC50 was 35.7 ± 0.5 µM.

Question: And the EC50 [7]?
Answer: The EC50 was 2.3 ± 0.5 µM.

Question: And the EC50 [8]?
Answer: Its EC50 is 12.1 ± 0.7 µM.

Question: What about the EC50 [9] of the same compound?
Answer: Its EC50 is 0.4 ± 0.1 µM.
